Experimental data from PubChem BioAssay (NCI).
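Results reflect a 48-hour exposure of cells in 96-well plates to compound at five concentrations. GI50 is the concentration that inhibits growth by half. At the TGI there is no net growth.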

Columns and labels:
Experiment in all cases: NCI tumour cell line growth inhibition, 48 h
HCT-15 colon = test system: HCT-15 colon
HT29 colon = test system: HT29 colon
K-562 leukemia = test system: K-562 leukemia
KM12 colon = test system: KM12 colon
MOLT-4 leukemia = test system: MOLT-4 leukemia
NCI-H226 lung = test system: NCI-H226 lung
OVCAR-8 ovarian = test system: OVCAR-8 ovarian
SNB-75 CNS = test system: SNB-75 CNS
HL-60(TB) leukemia = test system: HL-60(TB) leukemia
LOX IMVI melanoma = test system: LOX IMVI melanoma

SMILES | TGI (HCT-15 colon) | TGI (HT29 colon) | TGI (K-562 leukemia) | TGI (KM12 colon) | TGI (MOLT-4 leukemia) | TGI (NCI-H226 lung) | TGI (OVCAR-8 ovarian) | TGI (SNB-75 CNS) | TGI (HL-60(TB) leukemia) | TGI (LOX IMVI melanoma) | GI50 (HCT-15 colon) | GI50 (HL-60(TB) leukemia) | GI50 (HT29 colon) | GI50 (K-562 leukemia) | GI50 (KM12 colon) | GI50 (MOLT-4 leukemia) | GI50 (NCI-H226 lung) | GI50 (OVCAR-8 ovarian) | GI50 (SNB-75 CNS) | GI50 (LOX IMVI melanoma)
COC1OC(COCc2ccc(Cl)cc2)C(OCc2ccc(Cl)cc2)C1N=[N+]=[N-] (centres undefined) | > 100 µM | > 100 µM | > 100 µM | > 100 µM | > 100 µM | > 100 µM | > 100 µM | > 100 µM | – | – | – | – | – | – | – | – | – | – | – | –
CC1OC(OC2C(O[C@H]3CC[C@@]4(C)C(=CC[C@H]5[C@@H]6C[C@@H]7O[C@]8(CC[C@H](C)CN8)[C@@H](C)[C@@H]7[C@@]6(C)CC[C@@H]54)C3)OC(CO)C(O)C2OC2OC(CO)C(O)C(O)C2O)C(O)C(O)C1O (some centres undefined) | 30.3 µM | 31.6 µM | – | 34.9 µM | 42.1 µM | 38.2 µM | 31.1 µM | 29.2 µM | 32.6 µM | 83.6 µM | – | – | – | – | – | – | – | – | – | –
O=[N+]([O-])c1cccc(-c2oc(C=Nc3ccccc3)c([N+](=O)[O-])c2-c2cccc([N+](=O)[O-])c2)c1 | – | > 100 µM | > 100 µM | > 100 µM | > 100 µM | > 100 µM | > 100 µM | > 100 µM | > 100 µM | > 100 µM | – | – | – | – | – | – | – | – | – | –
COc1cc2c3c(n(CCCI)c(=O)c2cc1OC)-c1cc2c(cc1C3=O)OCO2 | > 100 µM | > 100 µM | > 100 µM | > 100 µM | > 100 µM | 7.88 µM | 81.8 µM | > 100 µM | > 100 µM | – | 0.475 µM | 1.08 µM | 5.46 µM | 2.27 µM | 7.4 µM | 0.126 µM | 2.05 µM | 3.16 µM | > 100 µM | –
O=C(O)c1cnc2[nH]ccn2c1=O | > 100 µM | > 100 µM | > 100 µM | – | > 100 µM | > 100 µM | > 100 µM | > 100 µM | > 100 µM | – | – | – | – | – | – | – | – | – | – | –
O=[N+]([O-])c1cccc(C2ON2C2CCCCC2)c1 (centres undefined) | 30.7 µM | 28 µM | 60.3 µM | 21 µM | 64.7 µM | – | 32.8 µM | > 100 µM | 47.9 µM | – | – | – | – | – | – | – | – | – | – | –
CCOC(=O)C1=C(C)N(c2ccc(C)cc2)C2=C(C(=O)N(c3ccccc3)C2c2ccccc2)C1c1ccccc1 (centres undefined) | > 25 µM | > 25 µM | > 25 µM | – | > 25 µM | > 25 µM | > 25 µM | > 25 µM | > 25 µM | > 25 µM | – | – | – | – | – | – | – | – | – | –
COCCCNC(=O)CC(=O)NCCCOC | > 100 µM | > 100 µM | > 100 µM | > 100 µM | > 100 µM | – | > 100 µM | – | > 100 µM | – | – | – | – | – | – | – | – | – | – | –
CN(C)c1ccc(Nc2cc(-c3cccc(OC(F)(F)F)c3)nc3ccc(N4CCCC4)cc23)cc1 | 3.53 µM | 4.59 µM | – | – | – | 15.4 µM | – | 3.12 µM | – | 3.25 µM | 1.75 µM | – | 2.18 µM | – | – | – | 3.49 µM | – | 1.64 µM | 1.73 µM
CCCCS(=O)(=O)CCC(N)C(=O)O (centres undefined) | > 100 µM | > 100 µM | > 100 µM | > 100 µM | > 100 µM | > 100 µM | > 100 µM | > 100 µM | > 100 µM | – | – | – | – | – | – | – | – | – | – | –
O=c1[nH]c(=O)n(C2CC(O)C(CO)O2)cc1C1=NC1 (centres undefined) | > 100 µM | > 100 µM | – | > 100 µM | > 100 µM | > 100 µM | > 100 µM | > 100 µM | – | – | – | – | – | – | – | – | – | – | – | –
CN1CCN(c2ccc3nc(-c4ccc5nc(-c6ccc(OCCC(C)(C)C)cc6)[nH]c5c4)[nH]c3c2)CC1 | 28.2 µM | 4.07 µM | – | 4.2 µM | 10.7 µM | 52.2 µM | 18.6 µM | 18 µM | 29.1 µM | – | 12.1 µM | 4.71 µM | 1.78 µM | – | 1.91 µM | 3.12 µM | 23.8 µM | 4.69 µM | 3.46 µM | –
N#CSCC1CC(O)(c2ccccc2)CC(c2ccc(F)cc2)O1 (centres undefined) | 4.89 µM | 4.19 µM | 7.31 µM | 3.07 µM | 3.51 µM | – | 4.37 µM | 3.24 µM | – | 3.1 µM | 1.76 µM | – | 1.97 µM | 2.14 µM | 1.63 µM | 0.674 µM | – | 2.02 µM | 1.44 µM | 1.7 µM
O=C(O)/C(=C/C=C/c1ccccc1)c1csc(-c2nc(/C(=C\C=C\c3ccccc3)C(=O)O)cs2)n1 | > 100 µM | > 100 µM | 54.6 µM | 92.4 µM | 16.4 µM | – | > 100 µM | 98.7 µM | 39.3 µM | > 100 µM | – | – | – | – | – | – | – | – | – | –
Cc1cc(N(CCNc2ccnc3cc(Cl)ccc23)Cc2ccco2)nc(Cl)n1 | 3.19 µM | 3.24 µM | – | 3.95 µM | – | – | 4.42 µM | 2.97 µM | – | 3.07 µM | 1.64 µM | – | 1.58 µM | – | 1.89 µM | – | – | 2.06 µM | 1.47 µM | 1.59 µM
N#C/C(=C\c1cc(Cl)cc(Cl)c1)c1ccccn1 | > 100 µM | > 100 µM | > 100 µM | > 100 µM | > 100 µM | 85.7 µM | > 100 µM | 36 µM | > 100 µM | – | – | – | – | – | – | – | – | – | – | –
CCCCCCCCCc1cccc(N2C(N)=NC(N)=NC2(C)C)c1 | 0.169 µM | 1.33 µM | – | – | – | 61.2 µM | 16 µM | 25.9 µM | 1.71 µM | – | – | – | – | – | – | – | – | – | – | –
O=C(CCC(=O)C(C(=O)c1ccccc1)c1ccccc1)Nc1cccc(C(F)(F)F)c1 (centres undefined) | > 100 µM | > 100 µM | > 100 µM | > 100 µM | > 100 µM | > 100 µM | > 100 µM | – | > 100 µM | > 100 µM | – | – | – | – | – | – | – | – | – | –
COc1ccc(/C=c2\sc3n(c2=O)C(N)=C(C#N)C(c2ccc(OC)cc2)C=3c2nc3ccccc3[nH]2)cc1 (centres undefined) | 59.2 µM | – | > 100 µM | 31 µM | > 100 µM | 49.2 µM | – | > 100 µM | > 100 µM | 35.2 µM | – | – | – | – | – | – | – | – | – | –
Cc1ccc(S(=O)(=O)OCC23CCC(CC2)C2CC23)cc1 (centres undefined) | > 100 µM | > 100 µM | > 100 µM | – | > 100 µM | > 100 µM | > 100 µM | 40.6 µM | 39.1 µM | > 100 µM | – | – | – | – | – | – | – | – | – | –
CCC(=O)c1c(NOC2OC(COC(C)=O)C(OC(C)=O)C(OC(C)=O)C2OC(C)=O)nc(OC)n(C)c1=O (centres undefined) | > 100 µM | > 100 µM | > 100 µM | > 100 µM | > 100 µM | > 100 µM | > 100 µM | > 100 µM | – | > 100 µM | – | – | – | – | – | – | – | – | – | –
CCc1cccc(C(C)C)c1N1C(=O)C(=O)C(c2nc3ccccc3s2)C(=O)C1=O | > 50 µM | > 50 µM | > 50 µM | > 50 µM | 42.7 µM | – | > 50 µM | > 50 µM | 30.9 µM | > 50 µM | – | – | – | – | – | – | – | – | – | –
